Test results as given in patent US20200261440A1, “ZINC IONOPHORES AND USES THEREOF” (THE UNIVERSITY OF QUEENSLAND, priority 2017, published 2020).
Marks after values point to notes of the source that are not given here.

Tests used:
MRSA = assay: Drop test assay, growth on THY agar; format: cell-based, Staphylococcus aureus; conditions: PBT2 (1.5 μM), zinc(II) ions (400 μM)
Protocol: (§1) FIG. 1a illustrates growth of GAS, MRSA and VRE on THY agar in the presence or absence of PBT2 (1.5 μM) and zinc(II) ions (400 μM).
(§2) Bacteria were diluted from overnight cultures to get a starting OD600 of 0.01 in THY. Once the bacteria grew to an OD600 of 0.6, the culture were serially diluted in PBS and 5 μL of each dilution (undiluted, 10^−1, 10^−2, 10^−3, 10^−4, 10^−5) was plated on THY agar plates with or without zinc (400 μM) and/or PBT2 ([…]). Plates were incubated at 37° C. overnight. Drop tests were undertaken in biological triplicates.

VRE = assay: Drop test assay, growth on THY agar; format: cell-based, Enterococcus; conditions: PBT2 (1.5 μM), zinc(II) ions (400 μM)
Protocol: as §1, §2

GAS = assay: Drop test assay, growth on THY agar; format: cell-based, Streptococcus pyogenes; conditions: PBT2 (1.5 μM), zinc(II) ions (400 μM)
Protocol: as §1, §2

[1] = system: Vancomycin-resistant Enterococci (VRE) clinical isolate RBWH1; assay: MIC by broth microdilution (CLSI); format: cell-based, Enterococcus
Protocol: (§3) J. Path. Bact. […] Proc. Soc.
(§4) MIC assays were carried out in biological triplicates.
(§5) M100 Performance Standards for Antimicrobial Susceptibility Testing, 27th Edition.

[2] = system: GAS strain HKU16 (Streptococcus pyogenes strain HKU16); assay: microbe, parasite or virus in culture; format: cell-based
Protocol: as §3, §4, §5

[3] = system: Methicillin-resistant Staphylococcus aureus (MRSA) strain USA300; assay: MIC by broth microdilution (CLSI)
Protocol: GAS HKU16, MRSA USA300, VRE RBWH1, Klebsiella pneumoniae strain MS6771, E. coli strain MS8345 and Streptococcus pneumoniae strain 23F were grown in Todd-Hewitt broth (THB) or agar with 1% yeast extract (THY) [Todd, E. W. & Hewitt, L. F. A new culture medium for the production of antigenic streptococcal haemolysin. […] Bacteria were routinely grown at 37° C. in ambient air.
MICs were determined by broth microdilution in accordance to CLSI guidelines (“Methods for Dilution Antimicrobial Susceptibility Tests for Bacteria That Grow Aerobically”, Clinical and Laboratory Standards Institute) [Clinical and Laboratory Standards Institute. […] For MRSA, VRE, Klebsiella pneumoniae and E. coli the assays were performed in MHB, and for GAS and Streptococcus pneumoniae MHB+2.5% lysed horse blood (LHB) was used. The bacterial inoculum was prepared by direct colony suspension aiming for 2-8×10^5 colony forming units (CFU)/mL bacteria per well. Antibiotics/compounds were serially diluted two-fold across the 96-well plate, the last column contained no antibiotics/compounds. The inoculum was added to the plate containing antibiotic/compound and incubated for 16-24 h at 35+/−2° C. […] MIC assays were carried out in biological triplicates.
Using Clinical and Laboratory Standards Institute guidelines for antimicrobial sensitivity testing [Clinical and Laboratory Standards Institute.

[4] = system: P. aeruginosa strain 253-43-C; assay: MIC by broth microdilution (CLSI); format: cell-based, Pseudomonas aeruginosa
Protocol: They were obtained from Jan Bell, Australian Centre of Microbial Resistance Ecology (ACARE), University of Adelaide, Australia.
(§6) (2017)]. […] MIC assays were carried out in biological triplicates.

[5] = system: Klebsiella pneumoniae strain MS6771; assay: MIC by broth microdilution (CLSI); format: cell-based
[6] = system: MCR-1 E. coli strain MS8345; assay: MIC by broth microdilution (CLSI); format: cell-based, Escherichia coli; conditions: for antibiotic sensitivity of resistant strain: MCR1-positive E. coli MS8345; for MIC: MCR-1 E. coli
Protocol: as §3
J Infect Dis. 1995 171:890-6). E. coli strain MS8345 is a MCR-1 resistant clinical isolate supplied by Prof. D. L. Paterson, University of Queensland Centre for Clinical Research.
as §6

[Zn+2] [Zinc(II) ion] was tested, and the antibacterial activity (MRSA) was “neither PBT2 nor zinc(II) ions (in the form of zinc chloride) displayed antibacterial activity”, the antibacterial activity (VRE) was “neither PBT2 nor zinc(II) ions (in the form of zinc chloride) displayed antibacterial activity” and the antibacterial activity (GAS) was “neither PBT2 nor zinc(II) ions (in the form of zinc chloride) displayed antibacterial activity”. The MIC ([1]; VRE RBWH1, substance alone) was 3 mM, the MIC ([2]; GAS HKU 16, substance alone) was 2 mM and the MIC ([3]; MRSA USA300, substance alone) was 3 mM.

With polymyxin B the MIC ([4]; PBT2) was 1 µg/mL, the MIC ([4]; Untreated) was 8 µg/mL and the MIC ([1]; VRE RBWH1, CQ: 2.5 μM) was 64 µg/mL. For the same molecule, the MIC ([1]; VRE RBWH1, CQ: 2.5 μM, Zinc: 32 μM) was 0.5 to 1 µg/mL, the MIC ([1]; VRE RBWH1, PBT2: 1.75 μM) was 64 µg/mL and the MIC ([1]; VRE RBWH1, PBT2: 1.75 μM, Zinc: […]) was 0.5 µg/mL. For the same molecule, the antibiotic resensitization ([1]; VRE RBWH1, RA-HQ-12+zinc(II) ions (ZnSO4)) was “resensitize”, the “antibiotic sensitivity of resistant strain” value (shortened to “antibiotic sensitivity”) ([1]; VRE RBWH1, addition of sub-inhibitory PBT2+zinc(II) ions) was “became sensitive” and the MIC ([1]; VRE, RA-HQ-12: 3.5 μM) was 16 µg/mL. The MIC ([1]; VRE, RA-HQ-12: 3.5 μM, Zn: […]) was 4^# μg/mL, the MIC ([5]; K. pneumoniae, RA-HQ-12: 16 μM, Zn: 64 μM) was 4^# μg/mL and the antibiotic resensitization ([5]; Klebsiella pneumoniae MS6771, RA-HQ-12+zinc(II) ions (ZnSO4)) was “resensitize”. For the same molecule, the “antibiotic sensitivity” value ([5]; Klebsiella pneumoniae MS6771, addition of sub-inhibitory PBT2+zinc(II) ions) was “became sensitive”, the “antibiotic sensitivity” value ([5]; Klebsiella pneumoniae MS6771, combination with PBT2, no zinc) was “resulted in sensitivity” and the MIC ([5]; Klebsiella pneumoniae, CQ: 0 μM, Zinc: 0 μM) was 64 µg/mL. The MIC ([5]; Klebsiella pneumoniae, CQ: 64 μM) was 2 µg/mL, the MIC ([5]; Klebsiella pneumoniae, CQ: 64 μM, Zinc: 256 μM) was 2 µg/mL and the MIC ([5]; Klebsiella pneumoniae, PBT2: 0 μM, Zinc: 0 μM) was 32 to 64 µg/mL. The MIC ([5]; Klebsiella pneumoniae, Zinc: 256 μM (CQ panel)) was 32 to 64 µg/mL, the MIC ([5]; Klebsiella pneumoniae, Zinc: 256 μM (PBT2 panel)) was 32 to 64 µg/mL and the antibiotic resensitization ([2]; GAS HKU16, RA-HQ-12+zinc(II) ions (ZnSO4)) was “resensitize”. The “antibiotic sensitivity” value ([2]; GAS HKU16, addition of sub-inhibitory PBT2+zinc(II) ions) was “became sensitive”, the MIC ([2]; GAS, RA-HQ-12: 3.5 μM, Zn: […]) was 4^# μg/mL and the MIC ([2]; Streptococcus pyogenes HKU16, CQ: 0 μM, Zinc: 0 μM) was 64 µg/mL. For the same molecule, the MIC ([2]; Streptococcus pyogenes HKU16, CQ: 6 μM) was 32 µg/mL, the MIC ([2]; Streptococcus pyogenes HKU16, CQ: 6 μM, Zinc: 80 μM) was 1 µg/mL and the MIC ([2]; Streptococcus pyogenes HKU16, PBT2: 0 μM, Zinc: 0 μM) was 64 to 128 µg/mL. It also gave an MIC ([2]; Streptococcus pyogenes HKU16, PBT2: 4.75 μM) of 32 µg/mL, an MIC ([2]; Streptococcus pyogenes HKU16, PBT2: 4.75 μM, Zinc: […]) of 1 to 2 µg/mL and an MIC ([2]; Streptococcus pyogenes HKU16, Zinc: 80 μM) of 64 µg/mL. For the same molecule, the MIC ([2]; Streptococcus pyogenes HKU16, Zinc: […] (PBT2 panel)) was 64 µg/mL, the “antibiotic sensitivity” value ([6]; addition of sub-inhibitory PBT2+zinc(II) ions) was “became sensitive” and the “antibiotic sensitivity” value ([6]; combination with PBT2, no zinc) was “resulted in sensitivity”. The MIC ([6]; CQ: 0 μM, Zinc: 0 μM) was 8 µg/mL, the MIC ([6]; CQ: 5 μM) was 2 to 4 µg/mL and the MIC ([6]; CQ: 5 μM, Zinc: 25 μM) was 1 µg/mL. It also gave an MIC ([6]; PBT2: 0 μM, Zinc: 0 μM) of 8 µg/mL, an MIC ([6]; PBT2: 7 μM) of 1 µg/mL and an MIC ([6]; PBT2: 7 μM, Zinc: 200 μM) of 0.5 µg/mL. For the same molecule, the MIC ([6]; Zinc: 25 μM) was 8 µg/mL, the MIC ([6]; Zinc: 200 μM) was 8 µg/mL and the MIC ([3]; MRSA USA300, CQ: 1 μM) was 64 µg/mL. It also gave an MIC ([3]; MRSA USA300, CQ: 1 μM, Zinc: 32 μM) of 2 µg/mL, an MIC ([3]; MRSA USA300, PBT2: 0 μM, Zinc: 0 μM) of 64 µg/mL and an MIC ([3]; MRSA USA300, PBT2: 2 μM) of 64 µg/mL. The MIC ([3]; MRSA USA300, PBT2: 2 μM, Zinc: 50 μM) was 2 µg/mL, the antibiotic resensitization ([3]; MRSA USA 300, RA-HQ-12+zinc(II) ions (ZnSO4)) was “resensitize” and the MIC ([3]; MRSA USA300, Zinc: 50 μM) was 64 µg/mL. For the same molecule, the “antibiotic sensitivity” value ([3]; MRSA USA300, addition of sub-inhibitory PBT2+zinc(II) ions) was “became sensitive”, the MIC ([3]; MRSA, RA-HQ-12: 3.5 μM, Zn: […], oxacillin with 2% NaCl) was 4^# μg/mL and the MIC ([3]; MRSA, RA-HQ-12: 3.5 μM, oxacillin with 2% NaCl) was 32 µg/mL.
